Measured values published in patent EP0178388A1, “Quinolinecarboxylic acid derivatives” (KYORIN PHARMACEUTICAL CO., LTD., priority 1984, dated 1986).
Values after ≈ are worked out from the molar mass of the structure shown. Where a name gives a salt, the structure may show the parent alone. Read-outs that look alike come from different tables or passages of the source.

Experiments:
B. fragilis 25285 = experiment: In vitro antibacterial activity, MIC (standard strain); type: cell-based; details: Bacteroides fragilis; B. fragilis 25285, 10^6 cells/ml, standard strain; read-out: MIC
[1] = tested on: S. aureus IID 670 (Terajima); experiment: as above; type: cell-based; details: Staphylococcus aureus, IID670, 10^6 cells/ml
[2] = tested on: Peptostreptococcus anaerobius KYA 27337; experiment: as above; type: cell-based; details: KYA27337, Peptostreptococcus anaerobius KYA 27337, 10^6 cells/ml
[3] = tested on: Fusobacterium necrophorum S-45; experiment: as above; type: cell-based; details: S45, Fusobacterium necrophorum S-45, 10^6 cells/ml
[4] = tested on: Citrobacter freundii IID 976; experiment: as above; type: cell-based; details: IID976
[5] = tested on: Acinetobacter anitratus IID 876; experiment: as above; type: cell-based; details: Acinetobacter calcoaceticus, IID876; Acinetobacter anitratus IID 876, 10^6 cells/ml, standard strain; read-out: MIC
S. faecalis IID 682 = experiment: as above; type: cell-based; details: Enterococcus faecalis, IID682, S. faecalis IID 682, 10^6 cells/ml
[6] = tested on: Serratia marcescens IID 618; experiment: as above; type: cell-based; details: IID618, Serratia marcescens IID 618, 10^6 cells/ml, read-out: MIC
[7] = tested on: Eubacterium lentum GAI 5242; experiment: as above; type: cell-based; details: Eggerthella lenta, GAI5242, Eubacterium lentum GAI 5242, 10^6 cells/ml
S. faecalis 401 = experiment: In vitro antibacterial activity, MIC (clinical isolates); type: cell-based; details: Enterococcus faecalis; S. faecalis 401, 10^6 cells/ml, clinical isolate
[8] = tested on: Propionibacterium acens 11828; experiment: In vitro antibacterial activity, MIC (standard strain); type: cell-based; details: Propionibacterium acens 11828, 10^6 cells/ml
[9] = tested on: Enterobacter cloacae IID 977; experiment: as above; type: cell-based; details: IID977, Enterobacter cloacae IID 977, 10^6 cells/ml
[10] = tested on: Veillonella parvula KYA 10790; experiment: as above; type: cell-based; details: KYA10790, Veillonella parvula KYA 10790, 10^6 cells/ml
[11] = tested on: Pseudomonas aeruginosa V-1; experiment: as above; type: cell-based; details: V1; Pseudomonas aeruginosa V-1, 10^6 cells/ml, standard strain; read-out: MIC
C. ramosum = experiment: as above; type: cell-based; details: Thomasclavelia ramosa; C. ramosum, 10^6 cells/ml, standard strain; read-out: MIC
S. pneumoniae 2054 = experiment: In vitro antibacterial activity, MIC (clinical isolates); type: cell-based; details: Streptococcus pneumoniae; S. pneumoniae 2054, 10^6 cells/ml, clinical isolate
Pst. micros UPI 5464-1 = experiment: In vitro antibacterial activity, MIC (standard strain); type: cell-based; details: Parvimonas micra, UPI54641, Pst. micros UPI 5464-1, 10^6 cells/ml
S. pyogenes 4340 = experiment: In vitro antibacterial activity, MIC (clinical isolates); type: cell-based; details: Streptococcus pyogenes; S. pyogenes 4340, 10^6 cells/ml, clinical isolate
S. pneumoniae 3227 = experiment: as above; type: cell-based; details: Streptococcus pneumoniae; S. pneumoniae 3227, 10^6 cells/ml, clinical isolate
S. faecalis 214 = experiment: as above; type: cell-based; details: Enterococcus faecalis; S. faecalis 214, 10^6 cells/ml, clinical isolate
S. pneumoniae 15 = experiment: as above; type: cell-based; details: Streptococcus pneumoniae; S. pneumoniae 15, 10^6 cells/ml, clinical isolate
P. aeruginosa IFO 12689 = experiment: In vitro antibacterial activity, MIC (standard strain); type: cell-based; details: Pseudomonas aeruginosa, IFO12689, P. aeruginosa IFO 12689, 10^6 cells/ml, standard strain; read-out: MIC
S. faecalis 49 = experiment: In vitro antibacterial activity, MIC (clinical isolates); type: cell-based; details: Enterococcus faecalis; S. faecalis 49, 10^6 cells/ml, clinical isolate
[12] = tested on: Clostridium difficile I-E; experiment: In vitro antibacterial activity, MIC (standard strain); type: cell-based; details: Clostridioides difficile, 10^6 cells/ml
S. faecalis 402 = experiment: In vitro antibacterial activity, MIC (clinical isolates); type: cell-based; details: Enterococcus faecalis; S. faecalis 402, 10^6 cells/ml, clinical isolate
[13] = tested on: B. thetaiotaomicron (0661); experiment: In vitro antibacterial activity, MIC (standard strain); type: cell-based; details: Bacteroides thetaiotaomicron; B. thetaiotaomicron (0661), 10^6 cells/ml, standard strain; read-out: MIC
S. aureus Smith = experiment: In vivo antibacterial activity against systemic infection in mice;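 note: ED50 in mg/kg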; set-up: species or system mice (ICR-S); details: Staphylococcus aureus; S. aureus Smith, mice (ICR-S), intraperitoneal infection, oral at 1 hour after infection, challenge dose 3.5 x 10^5 cfu/mouse; read-out: ED50
Method: Experiment 2 In vivo antibacterial activity against systemic infection in mice (ICR-S)
The infections were produced by intraperitoneal infection of a suspension of the bacterial culture corresponding to the germ studied. The product was administered orally at 1 hour after the infection. The 50% effective dose (ED50) which protects 50% of the animals from death caused by the infection was determined from the relation between dosage and survival rate.

[14] = tested on: Alcaligenes faecalis 0114002; experiment: In vitro antibacterial activity, MIC (standard strain); type: cell-based; details: Alcaligenes faecalis 0114002, 10^6 cells/ml
S. agalactiae 4368 = experiment: In vitro antibacterial activity, MIC (clinical isolates); type: cell-based; details: Streptococcus agalactiae; S. agalactiae 4368, 10^6 cells/ml, clinical isolate
S. agalactiae 4468 = experiment: as above; type: cell-based; details: Streptococcus agalactiae; S. agalactiae 4468, 10^6 cells/ml, clinical isolate
B. distasonis 8503 = experiment: In vitro antibacterial activity, MIC (standard strain); type: cell-based; details: Parabacteroides distasonis, B. distasonis 8503, 10^6 cells/ml

| SMILES | MIC (B. fragilis 25285) [µg/mL] | MIC [1] [µg/mL] | MIC [2] [µg/mL] | MIC [5] [µg/mL] | MIC (S. faecalis IID 682) [µg/mL] | MIC [6] [µg/mL] | MIC (S. faecalis 401) [µg/mL] | MIC [9] [µg/mL] | MIC [10] [µg/mL] | MIC [11] [µg/mL] | MIC (S. pneumoniae 2054) [µg/mL] | MIC (Pst. micros UPI 5464-1) [µg/mL] | MIC (S. pyogenes 4340) [µg/mL] | MIC (S. pneumoniae 3227) [µg/mL] | MIC (S. faecalis 214) [µg/mL] | MIC (S. pneumoniae 15) [µg/mL] | MIC (P. aeruginosa IFO 12689) [µg/mL] | MIC (S. faecalis 49) [µg/mL] | MIC [12] [µg/mL] | MIC (S. faecalis 402) [µg/mL] | also measured |
| --- | --- | --- | --- | --- | --- | --- | --- | --- | --- | --- | --- | --- | --- | --- | --- | --- | --- | --- | --- | --- | --- |
| CC1CN(c2c(F)cc3c(=O)c(C(=O)O)cn(C4CC4)c3c2Cl)CCN1 (stereo not drawn) [Example 5, 8-Chloro-l-cyclopropyl-6-fluoro-1,4-dihydro-7-(3-methyl-1-piperazinyl)-4-oxoquinoline-3-carboxylic acid hydrochloride] | 0.39 | 0.1 | 0.39 | 0.05 | 0.39 | 0.05 | 0.78 | 0.05 | 0.2 | 0.78 | 0.78 | 0.2 | 0.39 | 0.78 | 0.78 | 0.78 | 1.56 | 0.78 | 3.13 | 0.78 | MIC [3]: 0.39 µg/mL; MIC ([4]; Citrobacter freundii IID 976, 10^6 cells/ml, standard strain, read-out: MIC): 0.025 µg/mL; MIC [7]: 0.39 µg/mL; MIC [8]: 0.39 µg/mL; MIC (C. ramosum): 3.13 µg/mL; MIC [13]: 1.56 µg/mL; ED50 (S. aureus Smith): 0.89 mg/kg; MIC [14]: 0.39 µg/mL; MIC (S. agalactiae 4368): 0.39 µg/mL; MIC (S. agalactiae 4468): 0.39 µg/mL |
| CC1CN(c2c(F)cc3c(=O)c(C(=O)O)cn(C4CC4)c3c2F)CCN1 (stereo not drawn) [Example 2, l-Cyclopropyl-6,8-difluoro-l,4-dihydro-7-(3-methyl-l-piperazinyl)-4-oxoquinoline-3-carboxylic acid] | 0.78 (≈ 2.15 µM) | 0.2 (≈ 0.55 µM) | 1.56 (≈ 4.29 µM) | 0.006 (≈ 0.0165 µM) | 0.78 (≈ 2.15 µM) | 0.05 (≈ 0.138 µM) | 1.56 (≈ 4.29 µM) | 0.05 (≈ 0.138 µM) | 0.2 (≈ 0.55 µM) | 0.2 (≈ 0.55 µM) | 1.56 (≈ 4.29 µM) | 0.2 (≈ 0.55 µM) | 0.78 (≈ 2.15 µM) | 1.56 (≈ 4.29 µM) | 0.78 (≈ 2.15 µM) | 0.78 (≈ 2.15 µM) | 0.78 (≈ 2.15 µM) | 0.78 (≈ 2.15 µM) | 6.25 (≈ 17.2 µM) | 1.56 (≈ 4.29 µM) | MIC ([4]; Citrobacter freundii): 0.0125 µg/mL (≈ 0.0344 µM); MIC (B. distasonis 8503): 1.56 µg/mL (≈ 4.29 µM); MIC [13]: 3.13 µg/mL (≈ 8.61 µM); MIC [14]: 0.2 µg/mL (≈ 0.55 µM); MIC (S. agalactiae 4368): 0.78 µg/mL (≈ 2.15 µM); MIC (S. agalactiae 4468): 0.78 µg/mL (≈ 2.15 µM) |
